Experimental data taken from patent US20190105367A1, “ANTIMICROBIAL 4-OXOQUINOLIZINES” (Emergent Product Development Gaithersburg Inc., priority 2011, published 2019).
pIC50: −log10 of the molar value. Values after ≈ are worked out from the molar mass of the structure shown. Values joined by “and” are separate entries in the source; they are usually repeats but may differ in a detail not shown here. Equal entries are not always repeated. Where two headings read alike, the source gives them in different places.

Assays:
A. baumannii A401 [1] = test: MIC without and with sub-inhibitory polymyxin B (Example 4); type: cell-based, Acinetobacter baumannii; conditions: for MIC without PB/MIC + PB: ratio, PB 0.06 μg/ml; for MIC without PB: without polymyxin B
A. baumannii A387 = test: Preliminary MBC without and with sub-inhibitory polymyxin B (Example 4); type: cell-based, Acinetobacter baumannii; conditions: for MBC +0.06 μg/ml PB: A. baumannii A387, +0.06 μg/ml polymyxin B; for MBC +0.06 μg/ml PB / MBC without PB: 1st experiment; for MBC without PB: A. baumannii A387, without polymyxin B
A. baumannii A472 = test: MIC without and with sub-inhibitory polymyxin B (Example 4); type: cell-based, Acinetobacter baumannii; conditions: for MIC without PB/MIC + PB: ratio; for MIC without PB: without polymyxin B
[2] = system: GN56 Acinetobacter baumannii levofloxacin resistant clinical isolate; test: Chequerboard synergy with polymyxin B, FICI (Example 6); type: cell-based
From the text: (§1) A chequerboard technique was used to identify possible synergistic or antagonistic interactions between the 4-oxoquinolizines compounds, levofloxacin and polymyxin B. Levofloxacin was included as a control. […] Final dilutions were made in Mueller-Hinton broth, the specific test medium used for MIC determinations according to CLSI guidelines (CLSI. Methods for Dilution Antimicrobial Susceptibility Tests for Bacteria That Grow Aerobically; Approved Standard-Eighth Edition (2009). CLSI Document M07-A8. CLSI, Wayne, Pa. 19087-1898, USA.). The test medium used was a cation-adjusted Mueller-Hinton Broth II (Becton Dickinson UK Ltd., Oxford Science Park, Oxford, UK, OX4 4DQ).
(§2) The compounds 2, 33 and 35, as well as levofloxacin were tested in combination with polymyxin B on the following isolates: GN31 Acinetobacter baumannii—antibiotic susceptible clinical isolate, GN52 Acinetobacter baumannii—levofloxacin resistant clinical isolate, GN56 Acinetobacter baumannii—levofloxacin resistant clinical isolate, GN48 Klebsiella pneumoniae—NCTC 13443—NDM-1-metallo-β-lactamase and GN10 Pseudomonas aeruginosa—ATCC 27853—antibiotic susceptible reference isolate. All isolates are from the collection maintained at Quotient Bioresearch Ltd., Cambridge, UK.
(§3) The MIC values for the compounds and polymyxin B and levofloxacin were determined by broth microdilution following CLSI guidelines, and the MICs of agents in combination were determined as described by Pillai et. al (Pillai S K, Moellering R C Jr, Eliopoulis G M; Antimicrobial Combinations in Antibiotics in Laboratory Medicine 5th Edition (V. Lorian Ed) (2005) p 365-440). Initial MIC results were used to determine the microtiter plate patterns for the chequerboards. A suitable doubling dilution concentration range was selected such that the combination antibiotic range was at least two concentrations above and four concentrations below the MIC for each isolate. A fixed range of 0.008 to 8 mg/L was tested for polymyxin B except in the case of A. baumannii GN31 where a range of 0.004 to 4 mg/L was tested when in combination with the compounds 2, 33 and 35 as well as levofloxacin.
(§4) From the raw data, fractional inhibitory concentration indices (FICI) were determined for the compounds of the invention and levofloxacin together with polymyxin B for each isolate as follows:
(§5) FICX=concentration of the combination antibiotic in a particular row MIC of the combination drug alone
(§6) FICY=MIC of polymyxin B in combination[…]MIC of the polymyxin B alone
(§7) Additionally isobolograms were created to represent the same data visually. Here, the MIC of polymyxin B was plotted against every concentration of the combination antibiotic up to the MIC.

[3] = system: GN52 Acinetobacter baumannii levofloxacin resistant clinical isolate; test: as above; type: cell-based
From the text: as §1, §2, §3, §4, §5, §6, §7

[4] = system: GN48 Klebsiella pneumoniae NCTC 13443 NDM-1-β-lactamase producing isolate; test: as above; type: cell-based
From the text: as §1, §2, §3, §4, §5, §6, §7

[5] = system: GN31 Acinetobacter baumannii antibiotic susceptible isolate; test: as above; type: cell-based
From the text: as §1, §2, §3, §4, §5, §6, §7

A. baumannii A401 [6] = test: Preliminary MBC without and with sub-inhibitory polymyxin B (Example 4); type: cell-based, Acinetobacter baumannii; conditions: for MBC +0.06 μg/ml PB: A baumannii A 401, +0.06 μg/ml polymyxin B; for MBC +0.06 μg/ml PB / MBC without PB: 1st experiment; for MBC without PB: A baumannii A 401, without polymyxin B
Cytotoxicity (Example 7) = type: cell-based; conditions: human, HEPG2 V1 cells
Protocol: The 4-oxoquinolizine compounds of the invention preferably have a low cytotoxicity against human cells. […].
Cytotoxicity was determined for the instant 4-oxoquinolizine compounds which show low cytotoxicity. (see Table 17 following). […]

B. thailandensis = type: cell-based, Burkholderia thailandensis; conditions: pH 7 vs pH 5
[7] = system: strains of A. baumannii and one strain of Acinetobacter sp.; test: MIC without polymyxin B, panel of Acinetobacter strains (Example 4); type: cell-based; conditions: 1st experiment; resistant strains, ATCC 19606, A329, A390 and A473 not taken
[8] = A baumannii A 401, +0.06 μg/ml PB, 2nd experiment
[9] = A baumannii A 401, +0.06 μg/ml polymyxin B, 1st experiment
[10] = A baumannii A 401, 1st experiment
[11] = A baumannii A 401, without PB, 2nd experiment
[12] = A. baumannii A387, +0.06 μg/ml PB, 2nd experiment
[13] = A. baumannii A387, without PB, 2nd experiment
[14] = A. baumannii A472, +[…] PB, 2nd experiment
[15] = A. baumannii A472, +[…] polymyxin B, 1st experiment
[16] = A. baumannii A472, 1st experiment
[17] = A. baumannii A472, without PB, 2nd experiment
[18] = Acinetobacter baumannii, A387, A. baumannii A387, +0.06 μg/ml PB, 2nd experiment, read-out: MBC
[19] = Acinetobacter baumannii, A472, read-out: MIC +[…] PB, A. baumannii A472, +[…] polymyxin B, 1st experiment

In the case of Polymyxin B [reference compound], the MIC (A. baumannii A401 [1]; [8]) was 0.25 µg/mL, the “MIC +0.06 μg/ml PB” value (A. baumannii A401 [1]; [9]) was 0.5 µg/mL and the “MIC without PB/MIC + PB” value (A. baumannii A401 [1]; [10]) was 2. For the same compound, the MIC (A. baumannii A401 [1]; [11]) was 0.5 µg/mL, the “MIC without PB” value (A. baumannii A401 [1]; [10]) was 1 µg/mL and the MBC (A. baumannii A387; [12]) was 0.25 µg/mL. The “MBC +0.06 μg/ml PB” value (A. baumannii A387) was 0.25 µg/mL, the MBC (A. baumannii A387; [13]) was 0.25 µg/mL and the “MBC without PB” value (A. baumannii A387) was 0.25 µg/mL. The MIC (A. baumannii A472; [14]) was 0.25 µg/mL, the “MIC +[…] PB” value (A. baumannii A472; [15]) was at most 0.125 µg/mL and the “MIC without PB/MIC + PB” value (A. baumannii A472; [16]) was at least 4. The MIC (A. baumannii A472; [17]) was 0.5 µg/mL, the “MIC without PB” value (A. baumannii A472; [16]) was 0.5 µg/mL and the “Polymyxin B MIC alone” value [2] was 0.5 mg/L. The “Polymyxin B MIC alone” value [3] was 0.5 mg/L, the “Polymyxin B MIC alone” value [4] was 0.5 mg/L and the “Polymyxin B MIC alone” value [5] was 0.25 mg/L and 0.5 mg/L. The MBC (A. baumannii A401 [6]; [8]) was 0.25 µg/mL, the “MBC +0.06 μg/ml PB” value (A. baumannii A401 [6]) was 0.5 µg/mL and the MBC (A. baumannii A401 [6]; [11]) was 0.5 µg/mL. For the same compound, the “MBC without PB” value (A. baumannii A401 [6]) was 1 µg/mL.
For `NCC[C@H](O)C(=O)N[C@@H]1C[C@H](N)[C@@H](O[C@H]2O[C@H](CN)[C@@H](O)[C@H](O)[C@H]2O)[C@H](O)[C@H]1O[C@H]1O[C@H](CO)[C@@H](O)[C@H](N)[C@H]1O` [Amikacin, reference compound], the “MIC without PB/MIC + PB” value (A. baumannii A401 [1]; [10]) was at least 1, the MBC (A. baumannii A387; [18]) was 128 µg/mL (≈ 219 µM) and the “MIC without PB/MIC + PB” value (A. baumannii A472; [16]) was at least 8. It also gave an MIC (A. baumannii A472; Acinetobacter baumannii, A472, A. baumannii A472, +[…] PB, 2nd experiment, read-out: MIC) of 32 µg/mL (≈ 54.6 µM) and an MIC (A. baumannii A472; [19]) of 16 µg/mL (≈ 27.3 µM).
In the case of `Cc1c(-c2ccc(N)c(F)c2)ccn2c(=O)c(C(=O)O)cc(C3CC3)c12` [Compound 1, 8-(3-fluoro-4-amino-phenyl)-1-cyclopropyl-9-methyl-4-oxo-quinolizine-3-carboxylic acid], the “MIC without PB/MIC + PB” value (A. baumannii A401 [1]; [10]) was at least 128, the MIC (A. baumannii A401 [1]; Acinetobacter baumannii, A401, A baumannii A 401, +0.06 μg/ml PB, 2nd experiment, read-out: MIC) was at most 0.03 µg/mL and the MIC (A. baumannii A401 [1]; Acinetobacter baumannii, A401, read-out: MIC +0.06 μg/ml PB, A baumannii A 401, +0.06 μg/ml polymyxin B, 1st experiment) was at most 0.03 µg/mL. For the same compound, the MBC (A. baumannii A387; [18]) was at most 0.03 µg/mL, the MBC (A. baumannii A387; Acinetobacter baumannii, A387, read-out: MBC +0.06 μg/ml PB, A. baumannii A387, +0.06 μg/ml polymyxin B, 1st experiment) was at most 0.03 µg/mL and the “MIC without PB/MIC + PB” value (A. baumannii A472; [16]) was at least 256. For the same compound, the MIC (A. baumannii A472; [19]) was at most 0.03 µg/mL, the pIC50 (Cytotoxicity (Example 7)) was 3.30 and the “Dilutions improvement shift on B. thailandensis MIC90 (between pH 7 and pH 5)” value (B. thailandensis) was “Yes, 4x”. The MBC (A. baumannii A401 [6]; Acinetobacter baumannii, A401, A baumannii A 401, +0.06 μg/ml PB, 2nd experiment, read-out: MBC) was at most 0.03 µg/mL and the MBC (A. baumannii A401 [6]; Acinetobacter baumannii, A401, read-out: MBC +0.06 μg/ml PB, A baumannii A 401, +0.06 μg/ml polymyxin B, 1st experiment) was at most 0.03 µg/mL.
With Imipenem/cilastatin the MIC (A. baumannii A401 [1]; [8]) was 4 µg/mL, the “MIC +0.06 μg/ml PB” value (A. baumannii A401 [1]; [9]) was 8 µg/mL and the MIC (A. baumannii A401 [1]; [11]) was 32 µg/mL. The “MIC without PB” value (A. baumannii A401 [1]; [10]) was 32 µg/mL, the MBC (A. baumannii A387; [12]) was 8 µg/mL and the “MBC +0.06 μg/ml PB” value (A. baumannii A387) was 8 µg/mL. For the same compound, the MBC (A. baumannii A387; [13]) was 16 µg/mL, the “MBC without PB” value (A. baumannii A387) was 16 µg/mL and the MIC (A. baumannii A472; [14]) was 0.25 µg/mL. For the same compound, the “MIC +[…] PB” value (A. baumannii A472; [15]) was 0.25 µg/mL, the MIC (A. baumannii A472; [17]) was 8 µg/mL and the “MIC without PB” value (A. baumannii A472; [16]) was 16 µg/mL. The MBC (A. baumannii A401 [6]; [8]) was 4 µg/mL, the “MBC +0.06 μg/ml PB” value (A. baumannii A401 [6]) was 8 µg/mL and the MBC (A. baumannii A401 [6]; [11]) was 32 µg/mL. For the same compound, the “MBC without PB” value (A. baumannii A401 [6]) was 32 µg/mL and the “MIC range without PB Oct. 1, 2006 n = 8” value [7] was 1 to 128 µg/mL.
